Laboratory results as given in patent US20150118267A1, “METHOD OF USING THEAFLAVIN” (priority 2013, published 2015).

How the values were obtained:
Type in all cases: in vivo, mice
[1] = Mouse body weight after 30-day theaflavin feeding; details: for BW change: mice, n=10, 30 days
Protocol: (§1) Female mice (Kuengming, China) weighing 18-22 g were used. The animals were housed in individual stainless steel cages in an air-conditioned room under a 12:12 hour light:dark cycle. A commercial pellet diet and water were provided throughout the experiment. All procedures were conducted in accordance with the P.R. China legislation under No. 8910M047 on the use and care of laboratory animals.
(§2) For each study, forty mice were divided into 4 groups with 10 mice per group (n=10). These four groups were control, theaflavin (low), theaflavin (mid), and theaflavin (high). The latter three were theaflavin-treated groups in which theaflavin (capsule, Xiayie™, prepared according to the method described in U.S. Pat. […] Water was fed for the control group. For the organ weight study, animals were sacrificed after the 30-day study, followed by collecting spleens and thymus for weight measurement. For the other studies, animals were harvested for further analyses as described below. Statistical differences between groups were calculated using SPSS 11.0 with student t test plus Dunnett method.

[2] = Weights of immune-related organs (spleen, thymus) after 30-day feeding; details: for Spleen Weight change / Thymus Weight change: mice, n=10, 30 days
Protocol: as §1, §2

[3] = system: Delayed-type hypersensitivity (DTH) induced by sheep red blood cell (SRBC); test: Mouse footpad swelling assay (DTH); details: for Footpad swelling: 24 hours after second SRBC injection, n=10
Protocol: For each study, forty mice were divided into 4 groups with 10 mice per group (n=10). These four groups were control, theaflavin (low), theaflavin (mid), and theaflavin (high). The latter three were theaflavin-treated groups in which theaflavin (capsule, Xiayie™, prepared according to the method described in U.S. Pat. […] […] […] […] Statistical differences between groups were calculated using SPSS 11.0 with student t test plus Dunnett method.
Delayed-type hypersensitivity (DTH) is an immune reaction induced by antigen. In the mice footpads at which DTH was elicited, transient swellings which usually peaked at 24-48 hours after the antigen challenge was observed. This assay of measuring footpad swelling of mice caused by a DTH reaction was used to test effects of theaflavin is on immune responses.
The Sheep red blood cell (SRBC) was taken from sheep and washed triple with physiological saline, centrifugated at 1500 g for 10 min, and adjusted to a final concentration of 2%. Each mouse was given a single injection of 0.2 ml of prepared 2% SRBC. On day 4 after the SRBC injection, each mouse was given an […] injection (the second injection) of 0.02 ml of prepared 20% SRBC. Mouse footpad thicknesses were measured before and 24 hours after the second injection. Mouse footpad swelling values were calculated from the difference between these two measurements.

[4] = system: Sheep red blood cell (SRBC); test: Mouse plasma hemolysin assay; details: for Antibody integrand: plasma on day 5 after SRBC injection, n=10
Protocol: For each study, forty mice were divided into 4 groups with 10 mice per group (n=10). These four groups were control, theaflavin (low), theaflavin (mid), and theaflavin (high). The latter three were theaflavin-treated groups in which theaflavin (capsule, Xiayie™, prepared according to the method described in U.S. Pat. No. 8,282,970) was fed to mice at a dose of 83 mg, 250 mg, and 500 mg per kg body weight per day for 30 days for the low, mid, and high group, respectively. Water was fed for the control group. For the organ weight study, animals were sacrificed after the 30-day study, followed by collecting spleens and thymus for weight measurement. For the other studies, animals were harvested for further analyses as described below. Statistical differences between groups were calculated using SPSS 11.0 with student t test plus Dunnett method.
Each mouse was given a single injection of 0.2 ml of 2% SRBC from the above-described preparation. On day 5 after the SRBC injection, the plasma was collected by centrifuging the mouse eye blood at 2000 r/min for 10 min, then was stored into a sterile tube. With a micro hemagglutinin-assay plate, the plasma was diluted to a series of concentrations, then […] of 0.5% SRBC suspension was added. The contents were is mixed by vortexing and incubated for 3 h in a 37° C., 5% CO2 incubator, after which the hemagglutination was observed under microscope. The data were presented as antibody integrand.

[5] = theaflavin treatment for 30 days, compared to control

O=c1c(O)cc([C@H]2Oc3cc(O)cc(O)c3C[C@H]2O)cc2c([C@H]3Oc4cc(O)cc(O)c4C[C@H]3O)cc(O)c(O)c12 [Theaflavin, theaflavin]
BW change ([1]; study I, 167 mg/kg.BW (Low)): 12.70 ± 0.82 g
BW change ([1]; study I, 333 mg/kg.BW (Mid)): 12.80 ± 0.79 g
BW change ([1]; study I, 500 mg/kg.BW (High)): 12.50 ± 0.71 g
BW change ([1]; study II, 167 mg/kg.BW (Low)): 12.00 ± 0.67 g
BW change ([1]; study II, 333 mg/kg.BW (Mid)): 11.80 ± 0.63 g
BW change ([1]; study II, 500 mg/kg.BW (High)): 12.70 ± 0.92 g
BW change ([1]; study III, 167 mg/kg.BW (Low)): 11.90 ± 0.88 g
BW change ([1]; study III, 333 mg/kg.BW (Mid)): 12.80 ± 0.63 g
BW change ([1]; study III, 500 mg/kg.BW (High)): 11.90 ± 0.57 g
BW change ([1]; study IV, 167 mg/kg.BW (Low)): 13.00 ± 0.94 g
BW change ([1]; study IV, 333 mg/kg.BW (Mid)): 11.90 ± 0.77 g
BW change ([1]; study IV, 500 mg/kg.BW (High)): 12.00 ± 0.47 g
effect on mice body weights [1, 5]: no effect
Spleen Weight change ([2]; 167 mg/kg.BW (Low)): 0.47 ± 0.13%
Thymus Weight change ([2]; 167 mg/kg.BW (Low)): 0.42 ± 0.07%
Spleen Weight change ([2]; 333 mg/kg.BW (Mid)): 0.46 ± 0.10%
Thymus Weight change ([2]; 333 mg/kg.BW (Mid)): 0.43 ± 0.12%
Spleen Weight change ([2]; 500 mg/kg.BW (High)): 0.45 ± 0.07%
Thymus Weight change ([2]; 500 mg/kg.BW (High)): 0.42 ± 0.11%
effect on weights of immune system related organs, i.e., spleen and thymus [2, 5]: no effect
Footpad swelling ([3]; 167 mg/kg.BW (Low)): 1.46 ± 0.39 mm
Footpad swelling ([3]; 333 mg/kg.BW (Mid)): 1.24 ± 0.24 mm
Footpad swelling ([3]; 500 mg/kg.BW (High)): 1.53 ± 0.49 mm
mouse footpad swelling compared to control ([3]; theaflavin low and high groups): statistically significant mouse footpad swelling
Antibody integrand ([4]; 167 mg/kg.BW (Low)): 143.80 ± 35.23
Antibody integrand ([4]; 333 mg/kg.BW (Mid)): 123.20 ± 20.37
Antibody integrand ([4]; 500 mg/kg.BW (High)): 146.40 ± 26.46
mouse plasma hemolysin assay result compared to control ([4]; theaflavin low and high groups): statistically significant results
